In PubChem BioAssay (NCI):
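Growth conditions: 96-well plates. Treatment: test compound, 48 hours, 5 concentrations. Analysis: linear interpolation between bracketing concentrations; unreached endpoints set to highest concentration. At the GI50, growth is halved. TGI: concentration producing complete growth inhibition.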

Tests used:
Assay in all cases: inhibition of tumour cell growth, NCI panel, 48 h
UACC-257 melanoma = tested on: UACC-257 melanoma
TK-10 renal = tested on: TK-10 renal
M14 melanoma = tested on: M14 melanoma
T-47D breast = tested on: T-47D breast
OVCAR-3 ovarian = tested on: OVCAR-3 ovarian
ACHN renal = tested on: ACHN renal
DU-145 prostate = tested on: DU-145 prostate
HCT-15 colon = tested on: HCT-15 colon

| SMILES | GI50 (UACC-257 melanoma) [µM] | TGI (UACC-257 melanoma) [µM] | GI50 (TK-10 renal) [µM] | TGI (TK-10 renal) [µM] | GI50 (M14 melanoma) [µM] | TGI (M14 melanoma) [µM] | GI50 (T-47D breast) [µM] | TGI (T-47D breast) [µM] | GI50 (OVCAR-3 ovarian) [µM] | TGI (OVCAR-3 ovarian) [µM] | GI50 (ACHN renal) [µM] | TGI (ACHN renal) [µM] | GI50 (DU-145 prostate) [µM] | TGI (DU-145 prostate) [µM] | GI50 (HCT-15 colon) [µM] | TGI (HCT-15 colon) [µM] |
| --- | --- | --- | --- | --- | --- | --- | --- | --- | --- | --- | --- | --- | --- | --- | --- | --- |
| N#C/C(N)=C(\C#N)N=Cc1csc2ccccc12 | > 100 | > 100 | 17.6 | 45 | 46.8 | > 100 | 1.07 | 28.5 | 19.1 | 47.8 | 29.9 | > 100 | 29.6 | > 100 | 71.9 | > 100 |
| O=S(=O)(NCCNc1cc(-c2cn(-c3ccccc3)nc2-c2cccc(O)c2)ccn1)c1ccc(Cl)cc1 | 3.39 | 10.3 | 4.25 | 23.1 | 2.54 | 8.61 | 2.16 | 7.74 | 2.06 | 5.05 | 2.63 | 10.3 | 3.6 | 21.3 | 2.14 | 6.42 |
| Cc1ccc2c(c1)O/C(=C\c1ccc([N+](=O)[O-])o1)C2=O | 1.54 | 3.31 | 1.39 | 2.75 | 1.75 | 4.07 | 1.86 | 4.77 | 1.53 | 2.86 | 1.19 | 2.53 | 2.25 | 6.4 | 0.393 | 1.54 |
| CCOc1ccc2ccc3cccnc3c2n1 | – | 85.1 | – | > 100 | – | > 100 | – | > 100 | – | 58.4 | – | > 100 | – | > 100 | – | > 100 |
| C/C1=C\C/C=C(\C)[C@H]2CC(CC/C(C)=C/CC1)[C@](C)(C=O)O2 | > 100 | > 100 | > 100 | > 100 | 51.9 | > 100 | > 100 | > 100 | 76.4 | > 100 | > 100 | > 100 | 79.8 | > 100 | > 100 | > 100 |
| [C-]#[N+][C@]12C(=O)[C@H](CCC1(C)C)C(C)(C)[C@H]1C(=O)N(C)c3cccc2c31 | 4.07 | > 100 | > 100 | > 100 | 29.9 | > 100 | 9.41 | > 100 | 4.13 | > 100 | 80.7 | > 100 | 61.6 | > 100 | 58.5 | > 100 |
| O=C1c2ccn(CCCCN3CCCCC3)c2C(=O)c2c1c(O)c1ccccc1c2O | 5.83 | 12.2 | 13.6 | 27.9 | 2.46 | 9.7 | 23.6 | > 59.6 | 10.5 | 41.9 | 18.7 | 38.5 | 14.1 | 30.3 | 2.74 | 7.98 |
| COc1cc(C2=NN(c3ccc(S(N)(=O)=O)cc3)C(c3ccc(Cl)cc3)C2)cc(OC)c1OC (stereo unspecified) | 9.5 | > 100 | 3.27 | > 100 | 4.8 | > 100 | 1.74 | 14.7 | 4.68 | > 100 | 2.62 | 9.27 | 9.78 | > 100 | 3.77 | > 100 |
| O=C(Nc1ccccc1O)c1ccc(CNC(=O)c2sccc2Nc2ccnc(C(F)(F)F)c2)cc1 | 4.61 | 38.1 | 4.76 | 22.7 | 7.87 | 27.8 | 3.45 | 29.9 | 7.48 | 21.6 | 4.95 | 26.5 | 6.1 | 21 | 6.54 | 26.8 |
| CC(=O)/C=C/C1=C(c2cccs2)c2ccccc2CC1 | 19.7 | 41.7 | 32 | > 100 | 18.8 | 41.7 | 23.7 | 53.5 | 29.7 | 63.6 | 22.5 | 57.5 | 42.8 | > 100 | 21.8 | 52.7 |
| O=C(Nc1cccc(O)c1)c1cccc(NC2=C(Cl)C(=O)N(Cc3ccccc3)C2=O)c1 | 14 | 31.8 | 15 | 29.8 | 20.5 | 40 | 23.5 | 60.5 | 8.16 | 23 | 17.9 | 33.1 | 3.61 | 16 | 16.2 | 30.1 |
| Cc1cc(C)n(C(=O)c2nn(-c3ccc(Cl)cc3)cc2O)n1 | 16.6 | > 100 | 4.71 | > 100 | 4.69 | > 100 | 3.67 | > 100 | 12.7 | 87.7 | 3.77 | > 100 | 6.23 | > 100 | 3.53 | > 100 |
| Oc1c(I)cc(-c2nc3ccccc3s2)cc1CN(Cc1ccccn1)Cc1ccccn1 | 0.87 | > 100 | 0.46 | > 100 | 0.357 | 13.1 | 0.666 | 83.3 | 0.534 | 11.7 | 0.286 | 3.37 | 0.616 | > 100 | 0.379 | > 100 |
| CC(=O)c1cc2c(c3ccsc13)-c1ccccc1CC2 | 47.1 | > 100 | 25.4 | 83 | 27.7 | 89.8 | > 100 | > 100 | 25.4 | > 100 | 45.5 | > 100 | 23.5 | > 100 | 22.3 | > 100 |
| NC(=S)N/N=C\c1nccc2c(N)cccc12 | 0.624 | 9.44 | 0.961 | > 100 | 0.153 | 0.317 | 0.454 | > 100 | 0.306 | > 100 | 0.0977 | – | 0.278 | 2.38 | 0.426 | > 100 |
